Reference: US5091539A, “Azolyl cycloalkanol derivatives and agricultural fungicides” (Shionogi & Co., Ltd., priority 1984, dated 1992)
In brackets after ≈: the same amount, converted by molar mass.

How the values were obtained:
[1] = system: Rhizoctonia solani; assay: Control test to damping-off of cucumber (Rhizoctonia solani); assay type: in vivo; conditions: soil drench, 14 days
Protocol: (§1) (1) The fungus causing damping-off of cucumber seedlings, Rhizoctonia solani or Fusarium oxysporum was cultured on a wheat bran medium at 28° C. for 5 days, which was mixed with sterilized soil and cultured for 2 days to prepare the inoculum. Sterilized soil (150 g) was put into a pot of 9 cm in diameter. The surface of the spot was covered with the above inoculum. […] Twenty cucumber seeds (Cultivar: Matsukaze) were sown 2 days after. The pots were kept at 30°±2° C. for 14 days. The infection was observed 14 days after and disease degree and percent disease degree were obtained by setting an evaluation index for each disease sympton.
(§2) (2) Evaluation [formula] wherein a: number of seeds without germination b: number of seedlings showing damping-off c: number of wilted seedlings d: number of seedlings being a little brownish in cotyledons or at the bottom of the stem e: number of uninfected seedlings [formula] wherein a: number of seeds without germination or seedlings with damping-off b: number of wilted seedlings c: number of seedlings being a little brownish in cotyledons or at the bottom of the stem d: number of uninfected seedlings [formula]

[2] = system: Botrytis cinerea; assay: Control test of Botrytis rot (gray mold) of cucumber; assay type: in vivo
Protocol: (1) Seedlings of cucumber (Cultivar: Matsukaze) were planted in a pot of 9 cm in diameter. The first leaf was sprayed with 3 ml each of solutions containing the test compound at the concentration of 125 or 31.3 ppm and the plant was dried by the air. After inoculation of the spores of Botrytis cinerea, the plants were kept at 20°±2° C. and 90-100% humidity ((i) protective spraying). Alternatively, the spores were inoculated at first and when the leaves suffered a little (about 2 days after), the solutions of the test compounds were sprayed ((ii) curative spraying). Evaluation was practised 3 days after the inoculation. Percent disease control was calculated by the ratio of diameter of diseased area in treated and untreated plants.
(§3) (1) Test methods and evaluation are the same as those in Tests 2, 4 and 6.

[3] = system: Sclerotinia sclerotiorum; assay: Control test to Sclerotinia rot of cucumber; assay type: in vivo
Excerpt: (1) This test was practised in the same manner as in the above test, control test of Botrytis rot (gray mold) of cucumber, except for using the mycelium of Sclerotinia sclerotiorum as inoculm. The same as in test 2.

[4] = system: Sphaerotheca fuliginea; assay: Control test to powdery mildew of cucumber (foliar and soil treatment); assay type: in vivo; conditions: for Foliar Treatment, Curative Effect / Foliar Treatment, Protective Effect / Soil Treatment, Protective Effect: index 0-10
Protocol: (1) Seeds of cucumber (Cultivar: Matsukaze) were sown in a pot of 9 cm in diameter and the pots were kept in a green house until the plant was grown for 2-3 leaf stage. The first leaf was sprayed with, (i) 3 ml each of solutions containing the test compound at the prescribed concetrations and dried by the air (foliar treatment). Inoculation of spore suspension of Sphaerotheca fuliginea by spraying was practised 2 days before the treatment (curative effect) or 1 day after the treatment (protective effect). Alternatively, (ii) 5 ml of the solution was applied at the root of the seedlings (soil treatment). The pots were kept in a greenhouse for 2 days and inoculation was practised in the same manner noted above. (iii) After sprayed with 3 ml of a solution of the test compound at a concentration of 125 ppm and dried by the air, the treated pots were set in a greenhouse. Untreated pots were placed next to the treated pots. Those treated and untreated plants were inoculated with spore suspension. Protective effect of the test compounds by vapor was thus checked. The effect was examined 14 days after the inoculation of the spores.
0: Disease sign is observed on the whole leaf.
3: Disease sign is observed on the leaf in about 50%.
5: Disease sign is observed on the leaf in about 30%.
7: Disease sign is observed on the leaf in about 20%.
9: a little disease sign is observed.
as §3

[5] = system: Sphaerotheca fuliginea; assay: Control test to powdery mildew of cucumber by vapor (filter paper disks); assay type: in vivo
Protocol: (1) The first leaves of young cucumber (Cultivar: Matsukaze) planted in pot of 9 cm in diameter were inoculated with spore suspension of Sphaerotheca fuliginea. After the plants were kept in a greenhouse for 2 days, thin cover plates, 15 mm in diameter, were put on the first leaves. Filter paper disks soaked with 80 μl of test solution at a concentration of 31.3, 7.8, 2.0 or 0.5 ppm were put on the plates for 3 days. Disease degrees were observed 14 days after the inoculation.
It is evaluated as + when an inhibition zone was observed around the plate, as ± when the inhibition zone has nearly the same diameter (8 mm) as that of plate or as - when there is no inhibition zone.
as §3

[6] = system: Fusarium oxysporum; assay: Control test to damping-off of cucumber (Fusarium oxysporum); assay type: in vivo; conditions: 500 ppm, soil drench, 14 days
Protocol: as §1, §2

[7] = system: Puccinia coronata; assay: Control test of crown rust of oat; assay type: in vivo
Protocol: (1) Young oats (Cultivar: Pc38) grown in pots in a greenhouse were (i) sprayed with 10 ml each of solution of the test compounds at a prescribed concentration and after air-drying, they were inoculated with 15 mg of uredospores of Puccinia coronata per 20 pots (protective spraying) or (ii) sprayed with the test solution 3 days after inoculation of uredospores. After each plant was kept at 20°-25° C. in a greenhouse for 2 weeks, number of uredia was counted on the first leaf.

[8] = system: Alternaria kikuchiana; assay: Anti-fungal activity in vitro; assay type: cell-based; conditions: 48 h, GY medium, 28° C., 2 days, spore suspension
Protocol: (§4) (1) Each test compound was diluted by two-fold dilution with GY medium (2% glucose and 0.4% yeast extract) containing 0.01% Tween 80 (trademark). Every diluted solution was inoculated with spore suspension (10^5-5 spores/ml) of Alternaria kikuchiana or a hyphae disk with agar (4 mm in diameter) of other fungi and incubated at 28° C. for 2 days.

[9] = system: Cladosporium herbarum; assay: Anti-fungal activity in vitro; assay type: cell-based; conditions: 48 h, GY medium, 28° C., 2 days
Protocol: as §4

[10] = system: Cochiobolus sativus; assay: Anti-fungal activity in vitro; assay type: cell-based; conditions: 48 h; GY medium, 28° C., 2 days
Protocol: as §4

[11] = system: Corticium rolfsii; assay: Anti-fungal activity in vitro; assay type: cell-based; conditions: Agroathelia rolfsii, 48 h; GY medium, 28° C., 2 days
Protocol: as §4

[12] = system: Diaporthe citri; assay: Anti-fungal activity in vitro; assay type: cell-based; conditions: 48 h, GY medium, 28° C., 2 days
Protocol: as §4

[13] = system: Monilinia fructicola; assay: Anti-fungal activity in vitro; assay type: cell-based; conditions: 48 h, GY medium, 28° C., 2 days
Protocol: as §4

[14] = system: Pyrenophora graminea; assay: Anti-fungal activity in vitro; assay type: cell-based; conditions: 48 h, GY medium, 28° C., 2 days
Protocol: as §4

[15] = system: Ustilago nuda; assay: Anti-fungal activity in vitro; assay type: cell-based; conditions: 48 h, GY medium, 28° C., 2 days
Protocol: as §4

[16] = system: Vasla ceratosperma; assay: Anti-fungal activity in vitro; assay type: cell-based; conditions: 48 h; GY medium, 28° C., 2 days
Protocol: as §4

Compound | Disease Degree ([1]; 31.3 ppm) | Percent Disease Control ([1]; 31.3 ppm) | Percent Disease Control, Curative Spraying ([2]; Table 2, 125 ppm) | Percent Disease Control, Protective Spraying ([2]; Table 2, 125 ppm) | Percent Disease Control, Curative Spraying ([3]; 31.3 ppm) | Percent Disease Control, Protective Spraying ([3]; 31.3 ppm) | Percent Disease Control, Curative Spraying ([3]; 125 ppm) | Percent Disease Control, Protective Spraying ([3]; 125 ppm) | Foliar Treatment, Curative Effect ([4]; second Table 4, 0.5 ppm) | Foliar Treatment, Protective Effect ([4]; second Table 4, 0.5 ppm) | Soil Treatment, Protective Effect ([4]; second Table 4, 0.5 ppm) | Foliar Treatment, Curative Effect ([4]; second Table 4, 2.0 ppm) | Foliar Treatment, Protective Effect ([4]; second Table 4, 2.0 ppm) | Soil Treatment, Protective Effect ([4]; second Table 4, 2.0 ppm) | Foliar Treatment, Curative Effect ([4]; second Table 4, 7.8 ppm) | Foliar Treatment, Protective Effect ([4]; second Table 4, 7.8 ppm) | Soil Treatment, Protective Effect ([4]; second Table 4, 7.8 ppm) | Foliar Treatment, Curative Effect ([4]; second Table 4, 31.3 ppm) | Foliar Treatment, Protective Effect ([4]; second Table 4, 31.3 ppm) | Soil Treatment, Protective Effect ([4]; second Table 4, 31.3 ppm) | also measured
O[C@@]1(c2ccc(F)cc2)CCCCC[C@H]1n1cncn1 (relative stereo) [Compound 30] | 18 | 82% | 94% | 100% | 94% | 89% | 96% | 100% | 7 (Disease sign is observed on the leaf in about 20%.) | 0 | 0 | 10 | 9 | 0 | 10 | 10 | 10 | 10 | 10 | 10 | Percent Disease Control, Curative Spraying ([2]; Table 2, 31.3 ppm): 86%; Percent Disease Control, Protective Spraying ([2]; Table 2, 31.3 ppm): 89%; Protective Effect by Vapor ([5]; Table 6, 0.5 ppm): -; Protective Effect by Vapor ([5]; Table 6, 2.0 ppm): -; Protective Effect by Vapor ([5]; Table 6, 7.8 ppm): +; Protective Effect by Vapor ([5]; Table 6, 31.3 ppm): +
O[C@@]1(c2ccc(Cl)s2)CCCCC[C@H]1n1cncn1 (relative stereo) [Compound 13, cis-1-(5-chloro-2-thienyl)-2-(1,2,4-triazol-1-yl)cycloheptanol] |  |  | 94% | 100% |  |  | 95% | 100% |  |  |  |  |  |  |  |  |  |  |  |  | Disease Degree ([1]; 500 ppm): 5; Percent Disease Control ([1]; 500 ppm): 95%; Disease Degree [6]: 100; Percent Disease Control [6]: 0%; Protective Index, Foliar Treatment ([4]; first Table 4, 125 ppm, foliar, 14 days): 10; Protective Index, Soil Treatment ([4]; first Table 4, 125 ppm, soil, 14 days): 10
OC(c1ccc(Cl)cc1)(c1cncnc1)c1ccccc1Cl (centres unmarked) [Fenarimol, reference compound] |  |  |  |  |  |  |  |  |  |  |  |  |  |  |  |  |  |  |  |  | Percent Disease Control, Curative Spraying ([7]; 12.5 ppm): 75%; Percent Disease Control, Protective Spraying ([7]; 12.5 ppm): 62%; Percent Disease Control, Curative Spraying ([7]; 25 ppm): 92%; Percent Disease Control, Protective Spraying ([7]; 25 ppm): 89%; Percent Disease Control, Curative Spraying ([7]; 50 ppm): 98%; Percent Disease Control, Protective Spraying ([7]; 50 ppm): 100%; MIC [8]: 6.25 µg/mL (≈ 18.9 µM); MIC [9]: > 50 µg/mL; MIC [10]: 1.56 µg/mL (≈ 4.71 µM); MIC [11]: 25 µg/mL (≈ 75.5 µM); MIC [12]: > 50 µg/mL; MIC [13]: 3.13 µg/mL (≈ 9.45 µM); MIC [14]: 12.5 µg/mL (≈ 37.7 µM); MIC [15]: 25 µg/mL (≈ 75.5 µM); MIC [16]: 12.5 µg/mL (≈ 37.7 µM)
O[C@@]1(c2ccccc2Cl)CCCC[C@H]1n1cncn1 (relative stereo) [Compound 32] | 10 | 90% |  |  | 86% | 72% | 94% | 100% | 7 (Disease sign is observed on the leaf in about 20%.) | 0 | 0 | 10 | 9 | 0 | 10 | 10 | 10 | 10 | 10 | 10 | MIC [8]: 3.13 µg/mL (≈ 11.3 µM); MIC [9]: 1.56 µg/mL (≈ 5.62 µM); MIC [10]: 3.13 µg/mL (≈ 11.3 µM); MIC [11]: 12.5 µg/mL (≈ 45 µM); MIC [12]: 3.13 µg/mL (≈ 11.3 µM); MIC [13]: 0.39 µg/mL (≈ 1.4 µM); MIC [14]: 1.56 µg/mL (≈ 5.62 µM); MIC [15]: 3.13 µg/mL (≈ 11.3 µM)
